From ChEMBL document CHEMBL1201862, “PubChem BioAssay data set” (2004)
Active and inactive are the calls of the source.

Assays:
[1] = target: T1, Carboxy-terminal domain RNA polymerase II polypeptide A small phosphatase 1 (Homo sapiens, UniProt Q9GZU7); assay: inhibitors of CTDSP1, concentration-response testing, biochemical assay, absorbance-based, actives from ultra-high-throughput screening (AID 540297); type: functional
T1 sequence (Q9GZU7 whole entry): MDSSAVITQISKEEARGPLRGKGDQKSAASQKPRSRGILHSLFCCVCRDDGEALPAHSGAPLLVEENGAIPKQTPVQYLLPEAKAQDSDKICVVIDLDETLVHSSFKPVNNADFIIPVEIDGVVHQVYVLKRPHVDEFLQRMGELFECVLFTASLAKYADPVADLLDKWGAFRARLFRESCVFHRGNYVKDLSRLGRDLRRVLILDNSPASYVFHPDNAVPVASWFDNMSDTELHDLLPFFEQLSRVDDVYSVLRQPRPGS

H9c2 = assay: cells; type: functional, cell-based; conditions: Rattus norvegicus, H9c2, Myocardium;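 further: confirmatory concentration-response retest of ultra-high-throughput screening hits for modulation of myocardial damage; cell death induced by hydrogen peroxide oxidative stress; compound pretreatment for 60 min then peroxide exposure for 2 h; potency is for protecting the cells against peroxide damage rather than for killing them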
[2] = test system: Streptococcus sp. 'group A'; assay: growth inhibition of control SK(-) GAS strain, dose response, counter-screen for streptokinase expression inhibitor project, luminescence, kanamycin, BacTiterGlo, confirmation (AID 1900); type: functional, organism-based
Streptokinase A = target: T2, Streptokinase A (Streptococcus pyogenes serotype M1, UniProt P10520); assay: S. pyogenes streptokinase expression inhibitors, potency, dose response, plasminogen activation absorbance, OD405 (AID 1914); type: functional, Streptococcus pyogenes M1 GAS;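 further: secreted streptokinase activity via plasminogen activation per viability signal from cell pellet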
T2 sequence (P10520 whole entry): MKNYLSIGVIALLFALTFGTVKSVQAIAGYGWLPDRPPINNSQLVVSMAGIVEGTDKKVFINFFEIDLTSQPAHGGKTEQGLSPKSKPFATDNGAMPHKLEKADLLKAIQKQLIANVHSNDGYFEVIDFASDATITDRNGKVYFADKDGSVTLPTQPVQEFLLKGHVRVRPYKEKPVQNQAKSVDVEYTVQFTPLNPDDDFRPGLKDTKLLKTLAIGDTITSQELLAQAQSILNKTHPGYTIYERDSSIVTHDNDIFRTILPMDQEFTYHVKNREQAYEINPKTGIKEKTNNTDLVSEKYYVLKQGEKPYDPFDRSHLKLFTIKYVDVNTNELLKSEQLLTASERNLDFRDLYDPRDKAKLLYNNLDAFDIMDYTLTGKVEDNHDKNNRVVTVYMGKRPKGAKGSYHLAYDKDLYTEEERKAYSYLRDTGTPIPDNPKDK

[3] = target: T3, Calpain-2 catalytic subunit (Sus scrofa, UniProt P43367); assay: pig calpain II inhibitor potency, dose response, biochemical, fluorogenic peptide substrate (AID 1420); type: functional
T3 sequence (P43367 whole entry): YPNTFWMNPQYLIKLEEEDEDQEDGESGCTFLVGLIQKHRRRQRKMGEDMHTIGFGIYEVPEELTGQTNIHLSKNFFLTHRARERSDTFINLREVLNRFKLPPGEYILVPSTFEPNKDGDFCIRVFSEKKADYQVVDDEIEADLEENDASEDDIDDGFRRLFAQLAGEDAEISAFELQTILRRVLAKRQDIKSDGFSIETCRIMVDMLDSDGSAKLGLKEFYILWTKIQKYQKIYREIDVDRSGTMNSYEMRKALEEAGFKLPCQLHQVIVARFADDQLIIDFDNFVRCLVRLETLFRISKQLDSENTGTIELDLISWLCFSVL

Streptococcus = assay: Group A Streptococcus viability loss, dose response, counter-screen for streptokinase expression inhibitor project, luminescence, BacTiterGlo (AID 1915); type: functional, organism-based;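 further: potency for reduction of bacterial viability or growth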
Protein skinhead-1 = target: T4, Protein skinhead-1 (Caenorhabditis elegans, UniProt P34707); type: functional
T4 sequence (P34707 whole entry): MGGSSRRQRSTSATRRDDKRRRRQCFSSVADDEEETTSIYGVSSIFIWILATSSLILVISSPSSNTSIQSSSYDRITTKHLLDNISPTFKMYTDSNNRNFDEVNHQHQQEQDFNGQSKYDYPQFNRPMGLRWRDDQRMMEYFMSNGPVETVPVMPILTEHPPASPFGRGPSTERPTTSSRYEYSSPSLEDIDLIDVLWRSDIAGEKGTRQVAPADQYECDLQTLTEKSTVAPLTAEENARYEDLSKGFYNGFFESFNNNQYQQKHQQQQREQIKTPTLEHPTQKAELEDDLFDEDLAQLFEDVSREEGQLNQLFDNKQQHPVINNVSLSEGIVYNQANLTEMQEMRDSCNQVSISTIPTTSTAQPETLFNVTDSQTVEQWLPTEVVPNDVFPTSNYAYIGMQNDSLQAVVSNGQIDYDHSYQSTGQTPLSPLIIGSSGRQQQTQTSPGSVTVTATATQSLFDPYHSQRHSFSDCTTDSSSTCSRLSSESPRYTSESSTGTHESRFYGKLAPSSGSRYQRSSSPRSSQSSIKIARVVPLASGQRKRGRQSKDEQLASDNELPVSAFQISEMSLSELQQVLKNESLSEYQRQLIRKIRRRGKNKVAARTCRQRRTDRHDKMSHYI

Cytochrome P450 3A4 = Cytochrome P450 3A4 (Homo sapiens, UniProt P08684);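 further: CYP3A4 tested as one member of a cytochrome P450 panel screen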
Cytochrome P450 2C9 = Cytochrome P450 2C9 (Homo sapiens, UniProt P11712)
Cytochrome P450 2D6 = Cytochrome P450 2D6 (Homo sapiens, UniProt P10635);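 further: CYP2D6 member of a cytochrome P450 panel assay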
[4] = target: Luciferin 4-monooxygenase (Photinus pyralis, UniProt P08659); assay: firefly luciferase enzyme inhibitors, dose response, biochemical, luminescence (AID 1891)
[5] = Luminescence Cell-Based Dose Confirmation HTS to Identify Inhibitors of Platelet Dense Granule Release. [Related pubchem assays: 1663 (Primary HTS), 1678 (Summary of Project)]; type: functional
[6] = THP-1 cell cytotoxicity, dose response, cytotoxicity control for non-replicating M. tuberculosis project (AID 489025); type: functional
cells = type: functional
Cytochrome P450 2C19 = Cytochrome P450 2C19 (Homo sapiens, UniProt P33261); assay: Cytochrome panel assay with activity outcomes. Panel member name: p450-cyp2c19 Compounds with AC50 equal or less than 10 uM are considered active; type: functional; conditions: read-out: AC50
Cytochrome P450 1A2 = target: T5, Cytochrome P450 1A2 (Homo sapiens, UniProt P05177);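 further: PubChem cytochrome P450 panel assay, CYP1A2 panel member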
T5 sequence (P05177 whole entry): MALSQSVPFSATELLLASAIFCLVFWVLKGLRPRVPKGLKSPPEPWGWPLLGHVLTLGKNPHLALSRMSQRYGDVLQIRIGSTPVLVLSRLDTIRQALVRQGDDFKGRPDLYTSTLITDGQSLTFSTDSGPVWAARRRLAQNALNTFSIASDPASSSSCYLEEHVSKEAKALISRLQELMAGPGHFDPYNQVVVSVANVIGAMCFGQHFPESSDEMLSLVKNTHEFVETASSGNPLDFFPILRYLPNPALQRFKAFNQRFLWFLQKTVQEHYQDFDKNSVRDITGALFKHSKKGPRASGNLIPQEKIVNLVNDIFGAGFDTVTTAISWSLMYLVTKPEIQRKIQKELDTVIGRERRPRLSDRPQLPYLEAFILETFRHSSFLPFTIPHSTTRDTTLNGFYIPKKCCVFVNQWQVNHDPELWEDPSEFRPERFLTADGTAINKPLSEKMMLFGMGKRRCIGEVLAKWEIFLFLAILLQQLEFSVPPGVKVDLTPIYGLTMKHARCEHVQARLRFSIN

Cytochrome P450 2C9, sequence (P11712 whole entry): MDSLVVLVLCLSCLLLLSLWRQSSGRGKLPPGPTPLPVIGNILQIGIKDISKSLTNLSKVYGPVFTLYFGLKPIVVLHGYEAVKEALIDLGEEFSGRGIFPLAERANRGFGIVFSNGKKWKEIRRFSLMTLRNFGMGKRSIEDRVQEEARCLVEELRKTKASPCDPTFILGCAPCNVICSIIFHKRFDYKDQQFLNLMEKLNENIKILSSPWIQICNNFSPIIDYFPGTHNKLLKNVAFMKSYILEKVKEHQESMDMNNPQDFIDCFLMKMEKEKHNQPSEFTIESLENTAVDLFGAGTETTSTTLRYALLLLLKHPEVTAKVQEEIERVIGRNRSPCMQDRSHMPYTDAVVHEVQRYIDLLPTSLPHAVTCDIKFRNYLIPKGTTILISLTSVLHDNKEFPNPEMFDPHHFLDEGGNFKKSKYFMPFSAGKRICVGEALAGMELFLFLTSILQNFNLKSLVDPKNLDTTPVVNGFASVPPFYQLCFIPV
Luciferin 4-monooxygenase, sequence (P08659 whole entry): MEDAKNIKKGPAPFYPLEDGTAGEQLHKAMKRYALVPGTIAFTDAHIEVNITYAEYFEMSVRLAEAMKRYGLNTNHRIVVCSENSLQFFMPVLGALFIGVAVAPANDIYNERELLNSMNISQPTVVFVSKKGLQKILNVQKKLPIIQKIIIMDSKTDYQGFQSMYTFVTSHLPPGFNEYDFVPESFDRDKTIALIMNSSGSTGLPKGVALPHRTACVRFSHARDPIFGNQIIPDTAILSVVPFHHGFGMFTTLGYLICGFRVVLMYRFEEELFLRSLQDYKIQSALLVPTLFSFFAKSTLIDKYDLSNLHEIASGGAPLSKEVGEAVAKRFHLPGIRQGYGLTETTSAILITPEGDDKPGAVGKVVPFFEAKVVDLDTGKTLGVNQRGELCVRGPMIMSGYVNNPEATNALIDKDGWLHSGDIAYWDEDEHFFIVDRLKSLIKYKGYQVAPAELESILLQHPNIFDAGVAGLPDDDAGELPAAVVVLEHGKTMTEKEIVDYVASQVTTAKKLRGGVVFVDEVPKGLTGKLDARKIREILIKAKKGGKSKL
Cytochrome P450 3A4, sequence (P08684 whole entry): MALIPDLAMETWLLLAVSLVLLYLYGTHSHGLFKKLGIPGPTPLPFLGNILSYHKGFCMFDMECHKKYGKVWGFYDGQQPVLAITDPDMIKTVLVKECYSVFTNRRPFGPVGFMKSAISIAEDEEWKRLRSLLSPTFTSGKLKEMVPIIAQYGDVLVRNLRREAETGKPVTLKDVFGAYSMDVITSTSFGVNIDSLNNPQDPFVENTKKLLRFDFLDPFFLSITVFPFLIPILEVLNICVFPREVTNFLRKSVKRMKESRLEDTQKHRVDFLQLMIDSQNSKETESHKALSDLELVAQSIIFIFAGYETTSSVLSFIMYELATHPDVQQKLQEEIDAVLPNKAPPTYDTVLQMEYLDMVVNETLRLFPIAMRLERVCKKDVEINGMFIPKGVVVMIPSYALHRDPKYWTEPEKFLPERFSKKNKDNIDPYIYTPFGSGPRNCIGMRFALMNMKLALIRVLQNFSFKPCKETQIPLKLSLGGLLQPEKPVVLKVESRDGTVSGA
Cytochrome P450 2C19, sequence (P33261 whole entry): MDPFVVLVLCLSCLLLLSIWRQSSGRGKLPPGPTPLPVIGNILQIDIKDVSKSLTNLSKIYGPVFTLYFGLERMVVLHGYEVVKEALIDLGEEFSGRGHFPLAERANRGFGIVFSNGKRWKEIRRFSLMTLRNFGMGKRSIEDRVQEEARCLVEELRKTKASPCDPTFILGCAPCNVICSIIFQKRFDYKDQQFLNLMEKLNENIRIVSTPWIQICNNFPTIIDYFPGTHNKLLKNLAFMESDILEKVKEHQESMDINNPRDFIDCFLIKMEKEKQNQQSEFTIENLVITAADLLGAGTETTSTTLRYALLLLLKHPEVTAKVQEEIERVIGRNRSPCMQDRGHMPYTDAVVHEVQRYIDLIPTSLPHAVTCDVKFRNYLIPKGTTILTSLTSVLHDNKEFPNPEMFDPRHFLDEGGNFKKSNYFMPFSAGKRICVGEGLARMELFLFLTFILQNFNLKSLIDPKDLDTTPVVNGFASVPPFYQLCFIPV
Cytochrome P450 2D6, sequence (P10635 whole entry): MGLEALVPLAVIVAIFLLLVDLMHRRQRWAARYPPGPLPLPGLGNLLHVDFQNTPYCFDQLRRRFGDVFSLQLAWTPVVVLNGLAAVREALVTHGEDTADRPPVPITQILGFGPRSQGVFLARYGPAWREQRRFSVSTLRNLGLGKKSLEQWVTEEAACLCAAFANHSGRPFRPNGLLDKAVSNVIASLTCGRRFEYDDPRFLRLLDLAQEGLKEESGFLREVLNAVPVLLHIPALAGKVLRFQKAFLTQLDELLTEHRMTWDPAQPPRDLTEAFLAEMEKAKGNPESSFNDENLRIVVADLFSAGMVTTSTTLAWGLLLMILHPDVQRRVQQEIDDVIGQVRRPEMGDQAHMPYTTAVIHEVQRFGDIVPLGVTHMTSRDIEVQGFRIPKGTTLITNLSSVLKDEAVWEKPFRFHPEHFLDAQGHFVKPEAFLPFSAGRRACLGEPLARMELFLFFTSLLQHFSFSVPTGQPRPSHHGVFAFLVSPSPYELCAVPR

For `Cc1ccc(NC(=O)CN(C)C(=O)c2cc(-c3ccco3)nc3ccccc23)cc1`, the IC50 [1] was 3.88 µM (active).
For `Cc1cc(CNC(=O)COC(=O)Cn2[nH]c(=O)c3ccccc3c2=O)cc(C)c1O`, the IC50 (H9c2) was > 79 µM (inactive).
In the case of `COCC(C)n1c(C)cc(C(=O)COC(=O)c2c(NC(C)=O)sc(C)c2C)c1C` (configuration not stated), the IC50 [1] is reported as 9.88 µM (active).
With `CCOC(=O)c1cnc(-n2nc(C)cc2C)nc1Nc1ccc(OC)cc1` the EC50 [2] was 6.33 µM (active), the EC50 (Streptokinase A) was > 150 µM (not active) and the IC50 [3] was < 0.4 µM (not active). The EC50 (Streptococcus) was > 150 µM (not active).
In the case of `CN1/C(=C\C(=O)CSc2nnc(NCc3ccccc3)s2)C(C)(C)c2ccccc21`, the IC50 [3] is reported as 4.01 µM (not active) and the IC50 (Protein skinhead-1) is reported as > 100 µM (inactive).
For `CC1(C(=O)Nc2cccc(OC(F)(F)F)c2)Cc2c(-c3ccc(C(N)=O)cc3)ccnc2O1` (configuration not stated), the IC50 (H9c2) was > 79 µM (inactive).
For `Cc1ccc(C(=O)O)cc1-c1ccc(C=C2C(=O)c3ccccc3C2=O)o1`, the IC50 [1] was 13.7 µM (active).
With `c1ccc(Oc2ccc(-c3ccnc4ncnn34)cc2)cc1` the IC50 [3] was 11.5 µM (active).
For `CC(=O)c1ccc(-c2cnc3c(NC=O)cc(-c4cccc(NS(C)(=O)=O)c4)cn23)cc1`, the IC50 (H9c2) was > 79 µM (inactive).
In the case of `Cc1cccc(CNc2ccnc(-c3ccccc3CN(C)C)n2)c1`, the AC50 (Cytochrome P450 3A4) is reported as 3.98 µM (inconclusive) and the AC50 (Cytochrome P450 2C9) is reported as “inconclusive”.
In the case of `COC(=O)c1cc(Cl)c(NC(=O)/C=C/c2ccc(OC)c(OC)c2)cc1OC`, the IC50 (H9c2) is reported as 22.1 µM (active).
For `Cc1cc2ncn(-c3ncnc4sc5c(c34)CCC(C)C5)c2cc1C` (configuration not stated), the IC50 [3] was 19.2 µM (not active).
For `CCn1c(CNC(=O)COc2ccc(C(C)C)cc2)nnc1SCC(=O)Nc1cc(F)ccc1C`, the IC50 [1] was 16.7 µM (active) and the AC50 (Cytochrome P450 2D6) was 22.4 µM (inconclusive).
With `CCc1cccc2c(C=C(C#N)C#N)cn(CC(=O)N3CCCC3)c12` the AC50 (Cytochrome P450 2C9) was “inconclusive”.
With `COc1ccccc1OP(=O)(Nc1cccnc1)Oc1ccccc1OC` the IC50 (H9c2) was > 79 µM (inactive).
With `O=C(Nc1ccccc1Cl)c1ccccc1Cl` the AC50 (Cytochrome P450 2C9) was “inconclusive”.
For `CCCCNC(=O)Nc1ccc(Br)cn1`, the EC50 [4] was > 112 µM (not active) and the EC50 [5] was > 112 µM (not active).
In the case of `CC(=O)Nc1ccc(N/C=C2\C(=O)NC(=O)N(Cc3ccco3)C2=O)cc1`, the IC50 [1] is reported as 9.73 µM (active).
With `C/C(=N\NC(=O)COc1ccc(C)cc1Br)c1cc([N+](=O)[O-])cs1` the CC50 [6] was > 40 µM (active) and the IC50 (cells) was 34.1 µM (active).
In the case of `CC(C)C1OC(NC(=O)Nc2ccc(Cl)c(Cl)c2)=NC1=O` (configuration not stated), the EC50 [2] is reported as 2.51 µM (active), the EC50 (Streptokinase A) is reported as > 150 µM (not active) and the EC50 (Streptococcus) is reported as 28.7 µM (active). For the same molecule, the CC50 [6] was > 40 µM (active) and the IC50 (cells) was 18.9 µM (active).
For `Cc1cc(C)n(C(=O)c2cc3ccccc3c(=O)o2)n1`, the AC50 (Cytochrome P450 2C9) was “inconclusive”.
In the case of `COc1ccccc1Nc1nc(Cl)c(C=O)s1`, the IC50 [3] is reported as > 50 µM (not active).
In the case of `O=C(COC(=O)c1ccc(Cl)c(S(=O)(=O)N2CCCCC2)c1)NCc1ccco1`, the IC50 [1] is reported as 13.8 µM (active).
For `Cc1ccc(NC(=O)c2cccc(N(C)C)c2)cc1NC(=O)c1ccc(O)cc1`, the AC50 (Cytochrome P450 2C9) was “inconclusive”.
For `Cc1cccc(OCc2nc(C#N)c(NCc3ccc4c(c3)OCO4)o2)c1`, the IC50 [3] was 6.8 µM (not active).
In the case of `CN1CCCN(S(=O)(=O)c2ccc3c(c2)OCCO3)CC1`, the AC50 (Cytochrome P450 2C19) is reported as 25.1 µM (inconclusive) and the AC50 (Cytochrome P450 2C9) is reported as “inconclusive”.
For `O=C(Nc1cc(=O)c2ccccc2o1)N1CCCCC1`, the IC50 (H9c2) was 22.8 µM (active).
With `Cc1cc2ccccn2c1C(=O)c1ccc(N/N=C/c2ccc(C(=O)O)cc2)c([N+](=O)[O-])c1` the IC50 [1] was 1.02 µM (active).
With `N#Cc1ccc(OCC(=O)Nc2nc(-c3ccccn3)cs2)cc1` the IC50 (H9c2) was > 79 µM (inactive).
With `Cc1ccc(S(=O)(=O)N2CCN(C(=O)COC(=O)CCOc3ccccc3C)CC2)c(C)c1` the IC50 [1] was 10.7 µM (active).
With `Cc1nn(-c2ccccc2)c(Cl)c1C(=O)NNC(=O)c1ccccc1O` the IC50 (H9c2) was 13 µM (active).
In the case of `COn1c(=O)c(=O)n(O)c2ccccc21`, the EC50 [4] is reported as > 112 µM (not active) and the EC50 [5] is reported as > 112 µM (not active).
In the case of `O=C(CNC(=O)c1cccs1)NCC(=O)OCc1ccc(Cl)cc1Cl`, the AC50 (Cytochrome P450 1A2) is reported as 10 µM (inconclusive) and the AC50 (Cytochrome P450 2C9) is reported as “inconclusive”.
In the case of `CCCn1c(C2CC(=O)N(c3cc(OC)ccc3OC)C2)nc2ccccc21` (configuration not stated), the EC50 [4] is reported as > 112 µM (not active) and the EC50 [5] is reported as > 112 µM (not active).
In the case of `COc1ccc(OC)c([N+](=O)[O-])c1C(N)=O`, the IC50 [1] is reported as 3.49 µM (active).
In the case of `CCCCNC(=O)Cc1ccc(C)cc1`, the CC50 [6] is reported as > 40 µM (active).
